ChEMBL document CHEMBL1123680, “The influence of physicochemical parameters on the biliary excretion of a series of nitroimidazoles” (J Med Chem, 1987)

Tests used:
[1] = Percent biliary excretion property by administering intravenously to rats was reported as amount of unchanged form of compound detected in bile samples collected at 0-3 hr after the treatment.; details: rat, iv
[2] = Percent biliary excretion property by administering intravenously to rats was reported as amount of unchanged form of compound detected in bile samples collected at 0-2 hr after the treatment.; details: rat, iv
[3] = Percent biliary excretion property by administering intravenously to rats was reported as amount of unchanged form of compound detected in bile samples collected at 0-4 hr after the treatment.; details: rat, iv
[4] = Percent biliary excretion property by administering intravenously to rats was reported as amount of unchanged form of compound detected in bile samples collected at 0-1 hr after the treatment.; details: rat, iv
[5] = Percent biliary excretion property by administering intravenously to rats was reported as amount of unchanged form of compound detected in bile samples collected at 0-5 hr after the treatment.; details: rat, iv
[6] = Percent biliary excretion property by administering intravenously to rats was reported as amount of unchanged form of compound detected in bile samples collected at 0-6 hr after the treatment.; details: rat, iv
[7] = Partition coefficient (logP); details: octanol/water

| SMILES | dose excreted [1] [%] | dose excreted [2] [%] | dose excreted [3] [%] | dose excreted [4] [%] | dose excreted [5] [%] | dose excreted [6] [%] | logP [7] |
| --- | --- | --- | --- | --- | --- | --- | --- |
| Cn1c([N+](=O)[O-])cnc1C=O | 25 | 19.2 | 29.2 | 13 | 31.1 | 32 | -0.69 |
| O=[N+]([O-])c1c[nH]cn1 | 17.6 | 14.1 | 20.9 | 8.71 | 24.3 | 26.2 | – |
| Cn1c([N+](=O)[O-])cnc1CO | 29.6 | 23.3 | 34.6 | 16.7 | 34.6 | 37.8 | – |
| Cn1c([N+](=O)[O-])cnc1/C=C/c1ccnc(N)n1 [AZANIDAZOLE] | 25 | 21.1 | 28.4 | 14.4 | 30.6 | 33.1 | – |
| COC(=S)NCCn1c([N+](=O)[O-])cnc1C [CARNIDAZOLE] | 5.11 | 3.43 | 7 | 1.91 | 8.42 | 8.94 | – |
| CC(C)c1ncc([N+](=O)[O-])n1C [IPRONIDAZOLE] | 9.6 | 5.37 | 11.7 | 2.99 | 14 | 14 | – |
| Cc1ncc([N+](=O)[O-])n1CCO [METRONIDAZOLE] | 16.8 | 12.5 | 19.7 | 6.77 | 22.3 | 24.6 | – |
| O=[N+]([O-])c1cncn1CCN1CCOCC1 [NIMORAZOLE] | 6.92 | 5.25 | 8.71 | 3.42 | 10.7 | 11.8 | – |
| Cc1ncc([N+](=O)[O-])n1CC(O)CCl (stereo not drawn) [ORNIDAZOLE] | 10.6 | 7.33 | 12.3 | 1.68 | 13.5 | 14.7 | – |
| Cn1c([N+](=O)[O-])cnc1COC(N)=O [RONIDAZOLE] | 8.88 | 6.96 | 15.5 | 4 | 16.2 | 19.7 | -0.38 |
| CCS(=O)(=O)CCn1c([N+](=O)[O-])cnc1C [TINIDAZOLE] | 5.25 | 3.47 | 7.58 | 1.99 | 8.81 | 10.5 | – |
